# Key:
# Glucocorticoid receptor [1] = target: T1, Glucocorticoid receptor (Homo sapiens, UniProt P04150); assay: Displacement of fluorescent-labelled Dexamethasone from glucocorticoid receptor
# T1 sequence (P04150 whole entry): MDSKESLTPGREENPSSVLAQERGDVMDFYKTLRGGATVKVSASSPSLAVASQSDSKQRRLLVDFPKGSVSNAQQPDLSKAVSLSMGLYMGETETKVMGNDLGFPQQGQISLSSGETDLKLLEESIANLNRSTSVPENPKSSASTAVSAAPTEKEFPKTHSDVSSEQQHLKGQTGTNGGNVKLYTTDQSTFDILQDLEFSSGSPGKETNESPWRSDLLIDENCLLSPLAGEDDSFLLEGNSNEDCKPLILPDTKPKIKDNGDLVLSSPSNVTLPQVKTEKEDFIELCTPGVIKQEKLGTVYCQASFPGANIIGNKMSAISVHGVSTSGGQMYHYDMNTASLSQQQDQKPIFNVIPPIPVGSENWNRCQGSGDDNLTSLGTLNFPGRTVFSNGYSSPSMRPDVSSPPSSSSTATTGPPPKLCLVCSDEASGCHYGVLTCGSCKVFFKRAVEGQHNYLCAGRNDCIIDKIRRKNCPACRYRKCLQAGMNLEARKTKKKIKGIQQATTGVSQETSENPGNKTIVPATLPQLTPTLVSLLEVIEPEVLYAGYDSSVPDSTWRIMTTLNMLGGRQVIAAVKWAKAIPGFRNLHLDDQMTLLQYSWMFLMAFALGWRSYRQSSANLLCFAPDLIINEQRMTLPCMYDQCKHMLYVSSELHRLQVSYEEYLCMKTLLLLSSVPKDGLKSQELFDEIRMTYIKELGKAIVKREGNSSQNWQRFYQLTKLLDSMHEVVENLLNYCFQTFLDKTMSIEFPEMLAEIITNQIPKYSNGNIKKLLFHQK
# Glucocorticoid receptor [2] = target: T1, Glucocorticoid receptor; assay: Agonist activity at glucocorticoid receptor in human A549 cells by NF-kappaB transrepression assay; type: functional, cell-based
# Glucocorticoid receptor [3] = target: T1, Glucocorticoid receptor; assay: Agonist activity at GR in human A549 cells transfected with luciferase gene linked to MMTV promoter assessed as luciferase transactivation activity; type: functional, cell-based
# [4] = Selectivity ratio of progesterone receptor to glucocorticoid receptor
# [5] = Selectivity ratio of androgen receptor to glucocorticoid receptor
Compound,IC50 (Glucocorticoid receptor [1]),IC50 (Glucocorticoid receptor [2]),IC50 (Glucocorticoid receptor [3]),Selectivity ratio [4],Selectivity ratio [5]
Cc1cc(NC[C@H](C)NS(=O)(=O)C2CC2)c2cnn(-c3cccc(C(=O)N[C@H](C)C(N)=O)c3)c2c1,31.6 nM,3.16 nM,126 nM,,
Cc1cc(NC[C@H](C)NS(=O)(=O)C2CC2)c2cnn(-c3cccc(C(=O)NCC(N)=O)c3)c2c1,7.94 nM,5.01 nM,200 nM,,
CNc1ccc(-n2ncc3c(NC[C@H](C)NS(=O)(=O)c4c(C)cc(C)cc4C)cc(C)cc32)cc1,20 nM,5.01 nM,251 nM,,
Cc1cc(C)c(S(=O)(=O)N[C@@H](C)CNc2cc(C)cc3c2cnn3-c2ccc(S(C)(=O)=O)cc2)c(C)c1,31.6 nM,5.01 nM,12.6 nM,10,> 100
Cc1cc(NC[C@H](C)NS(=O)(=O)C2CC2)c2cnn(-c3cccc(C(=O)N[C@@H](C)C(N)=O)c3)c2c1,39.8 nM,5.01 nM,200 nM,,
Cc1cc(C)c(S(=O)(=O)N[C@@H](C)CNc2cc(C)cc3c2cnn3-c2cccc(N[C@H](C)C(N)=O)c2)c(C)c1,15.8 nM,0.2 nM,2 nM,,
COc1cccc(-n2ncc3c(NC[C@H](C)NS(=O)(=O)c4c(C)cc(C)cc4C)cc(C)cc32)c1,,50.1 nM,200 nM,10,> 100
Cc1cc(C)c(S(=O)(=O)N[C@@H](C)CNc2cc(C)cc3c2cnn3-c2ccc(C#N)cc2)c(C)c1,15.8 nM,2 nM,5.01 nM,10,> 100
CCCS(=O)(=O)N[C@@H](C)CNc1cc(C)cc2c1cnn2-c1cccc(C(=O)NC(C)C)c1,12.6 nM,20 nM,79.4 nM,,
Cc1cc(NC[C@H](C)NS(=O)(=O)C2CC2)c2cnn(-c3cccc(C(=O)N4CCC[C@H]4C(N)=O)c3)c2c1,158 nM,794 nM,3980 nM,,
"Cc1cc(C)c(S(=O)(=O)N[C@@H](C)CNc2cc(C)cc3c2cnn3-c2cccc(N3CCCC(CO)C3)c2)c(C)c1 (single isomer, unassigned; isomer 2)",15.8 nM,39.8 nM,316 nM,,
Cc1cc(C)c(S(=O)(=O)N[C@@H](C)CNc2cc(C)cc3c2cnn3-c2ccc(NC3CC3)cc2)c(C)c1,7.94 nM,1.26 nM,7.94 nM,,
Cc1cc(C)c(S(=O)(=O)N[C@@H](C)CNc2cc(C)cc3c2cnn3-c2ccc(N[C@@H](C)C(N)=O)cc2)c(C)c1,31.6 nM,7.94 nM,15.8 nM,,
Cc1cc(C)c(S(=O)(=O)N[C@@H](C)CNc2cc(C)cc3c2cnn3-c2ccc(NCC(N)=O)cc2)c(C)c1,15.8 nM,3.16 nM,63.1 nM,,

# Continued, values first:
IC50 (Glucocorticoid receptor [1]),IC50 (Glucocorticoid receptor [2]),IC50 (Glucocorticoid receptor [3]),Selectivity ratio [4],Selectivity ratio [5],Compound
15.8 nM,7.94 nM,25.1 nM,10,> 100,Cc1cc(C)c(S(=O)(=O)N[C@@H](C)CNc2cc(C)cc3c2cnn3-c2cccc(F)c2)c(C)c1
15.8 nM,2 nM,12.6 nM,,,Cc1cc(NC[C@H](C)NS(=O)(=O)C2CC2)c2cnn(-c3cccc(C(=O)NC(C)C)c3)c2c1
126 nM,251 nM,> 6310 nM,,,Cc1cc(NC[C@H](C)NS(=O)(=O)C2CC2)c2cnn(-c3cccc(C(=O)N4CCCC(CO)C4)c3)c2c1 (some centres not stated)
25.1 nM,39.8 nM,631 nM,,,"Cc1cc(C)c(S(=O)(=O)N[C@@H](C)CNc2cc(C)cc3c2cnn3-c2cccc(N3CCCC(CO)C3)c2)c(C)c1 (single isomer, unassigned; isomer 1)"
25.1 nM,20 nM,251 nM,,,Cc1cc(C)c(S(=O)(=O)N[C@@H](C)CNc2cc(C)cc3c2cnn3-c2cccc(N3CCCC(CO)C3)c2)c(C)c1 (stereo in doubt; 14l)
39.8 nM,7.94 nM,50.1 nM,,,Cc1cc(NC[C@H](C)NS(=O)(=O)C(C)C)c2cnn(-c3cccc(C(=O)NC(C)C)c3)c2c1
126 nM,200 nM,2000 nM,,,Cc1cc(NC[C@H](C)NS(C)(=O)=O)c2cnn(-c3cccc(C(=O)NC(C)C)c3)c2c1
25.1 nM,7.94 nM,158 nM,,,Cc1cc(C)c(S(=O)(=O)N[C@@H](C)CNc2cc(C)cc3c2cnn3-c2ccc(N[C@H](C)C(N)=O)cc2)c(C)c1
6.31 nM,0.126 nM,0.501 nM,,,Cc1cc(C)c(S(=O)(=O)N[C@@H](C)CNc2cc(C)cc3c2cnn3-c2cccc(NC(C)C)c2)c(C)c1
12.6 nM,2 nM,10 nM,,,Cc1cc(C)c(S(=O)(=O)N[C@@H](C)CNc2cc(C)cc3c2cnn3-c2ccc(NC(C)C)cc2)c(C)c1
15.8 nM,0.0794 nM,0.316 nM,,,CCN(C[C@](O)(CNc1cccc2c1cnn2-c1ccc(F)cc1)C(F)(F)F)C(=O)c1c(Cl)cccc1Cl
12.6 nM,0.251 nM,2.51 nM,,,Cc1cc(C)c(S(=O)(=O)N[C@@H](C)CNc2cc(C)cc3c2cnn3-c2cccc(NCC(N)=O)c2)c(C)c1
7.94 nM,0.316 nM,1.26 nM,,,Cc1cc(C)c(S(=O)(=O)N[C@@H](C)CNc2cc(C)cc3c2cnn3-c2cccc(NC3CC3)c2)c(C)c1
15.8 nM,1.26 nM,3.98 nM,10,> 100,Cc1cc(C)c(S(=O)(=O)N[C@@H](C)CNc2cc(C)cc3c2cnn3-c2ccc(F)cc2)c(C)c1
12.6 nM,6.31 nM,50.1 nM,,,Cc1cc(C)c(S(=O)(=O)NC[C@@H](C)Nc2cc(C)cc3c2cnn3-c2ccc(F)cc2)c(C)c1
5.01 nM,0.501 nM,1.58 nM,,,Cc1cc(C)c(S(=O)(=O)N[C@@H](C)CNc2cc(C)cc3c2cnn3-c2cccc(N[C@@H](C)C(N)=O)c2)c(C)c1
15.8 nM,12.6 nM,50.1 nM,10,> 100,COc1ccc(-n2ncc3c(NC[C@H](C)NS(=O)(=O)c4c(C)cc(C)cc4C)cc(C)cc32)cc1
31.6 nM,2.51 nM,50.1 nM,,,Cc1cc(NC[C@H](C)NS(=O)(=O)C2CC2)c2cnn(-c3cccc(C(=O)N(C)[C@H](C)C(N)=O)c3)c2c1

# Source: ChEMBL document CHEMBL1667843, “Discovery of a potent series of non-steroidal non α-trifluoromethyl carbinol glucocorticoid receptor agonists with reduced lipophilicity” (Bioorg Med Chem Lett, 2011)
